According to the kinase profiling compilation of Christmann-Franck et al. (2016):

What was measured:
Assay in all cases: radiometric filter-binding kinase assay
[1] = molecular target: BTK (human) (UniProt Q06187)
[2] = molecular target: CDK2 CCNA2 (human) (UniProt P20248+P24941)
[3] = molecular target: CHEK1 (human) (UniProt O14757)
[4] = molecular target: CSNK2A1 (human) (UniProt P68400)
[5] = molecular target: DAPK1 (human) (UniProt P53355); settings: compound 0.1 µM
[6] = molecular target: EEF2K (human) (UniProt O00418)
[7] = molecular target: EPHA4 (human) (UniProt P54764); settings: compound 0.1 µM
[8] = molecular target: EPHB1 (human) (UniProt P54762); settings: compound 0.1 µM
[9] = molecular target: EPHB4 (human) (UniProt P54760); settings: compound 0.1 µM
[10] = molecular target: GCK (human) (UniProt Q12851)
Sequence of GCK (human) (Q12851 whole entry, looked up): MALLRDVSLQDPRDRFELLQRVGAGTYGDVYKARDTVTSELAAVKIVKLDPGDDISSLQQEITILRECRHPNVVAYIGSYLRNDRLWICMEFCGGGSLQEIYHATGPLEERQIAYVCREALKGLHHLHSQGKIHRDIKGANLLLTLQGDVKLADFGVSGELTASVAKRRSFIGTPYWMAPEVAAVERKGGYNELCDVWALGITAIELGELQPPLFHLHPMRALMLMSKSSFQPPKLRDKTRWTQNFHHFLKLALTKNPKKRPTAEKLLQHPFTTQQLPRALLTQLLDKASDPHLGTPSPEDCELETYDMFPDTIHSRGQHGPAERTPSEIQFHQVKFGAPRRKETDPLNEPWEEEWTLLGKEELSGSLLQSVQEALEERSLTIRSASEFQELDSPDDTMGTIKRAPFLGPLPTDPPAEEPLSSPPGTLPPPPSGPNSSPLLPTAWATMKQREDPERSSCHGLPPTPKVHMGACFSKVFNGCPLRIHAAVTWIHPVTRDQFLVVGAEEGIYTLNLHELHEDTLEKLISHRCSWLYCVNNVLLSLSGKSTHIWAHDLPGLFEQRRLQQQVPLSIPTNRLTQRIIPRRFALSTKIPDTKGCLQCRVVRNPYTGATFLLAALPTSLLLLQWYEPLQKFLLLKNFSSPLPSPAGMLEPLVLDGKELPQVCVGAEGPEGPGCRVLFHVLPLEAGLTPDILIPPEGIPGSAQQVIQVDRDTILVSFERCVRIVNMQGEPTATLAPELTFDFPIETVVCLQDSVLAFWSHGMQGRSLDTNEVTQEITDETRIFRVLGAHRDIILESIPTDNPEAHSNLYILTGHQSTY

[11] = molecular target: IKBKB (human) (UniProt O14920)
[12] = molecular target: INSRR (human) (UniProt P14616)
[13] = molecular target: MAP2K1 (human) (UniProt Q02750)
[14] = molecular target: MAP2K2 (human) (UniProt P36507); settings: compound 0.1 µM
[15] = molecular target: MAP3K5 (human) (UniProt Q99683); settings: compound 0.1 µM
[16] = molecular target: MAP3K9 (human) (UniProt P80192)
[17] = molecular target: MAPK9 (human) (UniProt P45984)
[18] = molecular target: MAPKAPK2 (human) (UniProt P49137)
[19] = molecular target: MARK3 (human) (UniProt P27448)
[20] = molecular target: MARK4 (human) (UniProt Q96L34); settings: compound 0.1 µM
[21] = molecular target: MKNK2 (human) (UniProt Q9HBH9)
[22] = molecular target: MYLK (human) (UniProt Q15746)
[23] = molecular target: NEK6 (human) (UniProt Q9HC98)
[24] = system: PAK2 (human), Q13177 [T402E]; settings: compound 0.1 µM
[25] = molecular target: PAK6 (human) (UniProt Q9NQU5)
[26] = molecular target: PIM1 (human) (UniProt P11309)
[27] = molecular target: PIM2 (human) (UniProt Q9P1W9)
[28] = molecular target: PIM3 (human) (UniProt Q86V86)
[29] = molecular target: PKN2 (human) (UniProt Q16513)
Sequence of PKN2 (human) (Q16513 whole entry, looked up): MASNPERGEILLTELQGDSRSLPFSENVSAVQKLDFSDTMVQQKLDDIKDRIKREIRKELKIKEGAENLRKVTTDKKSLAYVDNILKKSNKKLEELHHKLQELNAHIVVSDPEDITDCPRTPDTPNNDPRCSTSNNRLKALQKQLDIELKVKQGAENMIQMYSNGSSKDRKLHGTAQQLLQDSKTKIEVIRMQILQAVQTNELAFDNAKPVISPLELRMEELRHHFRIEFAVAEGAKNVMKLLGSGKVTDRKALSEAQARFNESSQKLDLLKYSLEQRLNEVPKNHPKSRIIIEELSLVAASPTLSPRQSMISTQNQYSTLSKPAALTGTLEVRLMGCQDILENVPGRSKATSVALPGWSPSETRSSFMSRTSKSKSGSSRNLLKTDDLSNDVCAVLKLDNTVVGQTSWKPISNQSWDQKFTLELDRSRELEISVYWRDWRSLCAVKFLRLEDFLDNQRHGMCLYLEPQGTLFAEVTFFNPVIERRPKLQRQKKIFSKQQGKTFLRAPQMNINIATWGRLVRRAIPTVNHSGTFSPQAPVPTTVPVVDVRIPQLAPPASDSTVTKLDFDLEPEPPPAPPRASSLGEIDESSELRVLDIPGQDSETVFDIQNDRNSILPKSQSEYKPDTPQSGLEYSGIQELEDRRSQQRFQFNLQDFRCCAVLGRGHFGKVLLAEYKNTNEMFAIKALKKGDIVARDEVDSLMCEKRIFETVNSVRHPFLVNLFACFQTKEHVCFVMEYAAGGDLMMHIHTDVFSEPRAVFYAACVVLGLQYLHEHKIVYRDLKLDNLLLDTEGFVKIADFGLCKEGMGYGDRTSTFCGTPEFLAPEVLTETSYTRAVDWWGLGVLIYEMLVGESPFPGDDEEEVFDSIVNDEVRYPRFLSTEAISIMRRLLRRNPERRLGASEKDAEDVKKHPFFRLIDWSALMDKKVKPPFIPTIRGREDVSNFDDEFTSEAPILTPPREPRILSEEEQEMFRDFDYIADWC

[30] = molecular target: RPS6KA5 KD1 KD2 (human) (UniProt O75582)
Sequence of RPS6KA5 KD1 KD2 (human) (O75582 whole entry, looked up): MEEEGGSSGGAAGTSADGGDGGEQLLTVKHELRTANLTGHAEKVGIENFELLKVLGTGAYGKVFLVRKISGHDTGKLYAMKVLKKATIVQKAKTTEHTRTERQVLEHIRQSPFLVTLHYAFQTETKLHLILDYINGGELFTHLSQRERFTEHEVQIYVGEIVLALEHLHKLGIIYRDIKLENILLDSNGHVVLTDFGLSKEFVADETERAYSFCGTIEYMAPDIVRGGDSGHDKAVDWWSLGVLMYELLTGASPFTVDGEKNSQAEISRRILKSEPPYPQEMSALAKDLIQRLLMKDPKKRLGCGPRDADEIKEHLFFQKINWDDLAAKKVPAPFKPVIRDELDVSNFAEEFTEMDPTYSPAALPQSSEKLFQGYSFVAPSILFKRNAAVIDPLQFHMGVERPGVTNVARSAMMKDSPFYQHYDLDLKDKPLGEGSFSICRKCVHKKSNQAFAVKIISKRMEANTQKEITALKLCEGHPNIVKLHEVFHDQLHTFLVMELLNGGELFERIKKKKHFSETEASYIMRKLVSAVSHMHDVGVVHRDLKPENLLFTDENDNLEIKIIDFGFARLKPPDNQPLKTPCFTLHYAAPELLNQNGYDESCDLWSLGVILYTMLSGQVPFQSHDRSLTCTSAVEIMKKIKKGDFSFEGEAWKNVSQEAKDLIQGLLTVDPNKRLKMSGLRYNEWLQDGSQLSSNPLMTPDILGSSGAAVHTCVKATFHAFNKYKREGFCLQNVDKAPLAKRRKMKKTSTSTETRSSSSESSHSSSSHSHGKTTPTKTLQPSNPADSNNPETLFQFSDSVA

[31] = system: RPS6KB1 (human), P23443 [T412E]
[32] = molecular target: SRPK1 (human) (UniProt Q96SB4)
Sequence of SRPK1 (human) (Q96SB4 whole entry, looked up): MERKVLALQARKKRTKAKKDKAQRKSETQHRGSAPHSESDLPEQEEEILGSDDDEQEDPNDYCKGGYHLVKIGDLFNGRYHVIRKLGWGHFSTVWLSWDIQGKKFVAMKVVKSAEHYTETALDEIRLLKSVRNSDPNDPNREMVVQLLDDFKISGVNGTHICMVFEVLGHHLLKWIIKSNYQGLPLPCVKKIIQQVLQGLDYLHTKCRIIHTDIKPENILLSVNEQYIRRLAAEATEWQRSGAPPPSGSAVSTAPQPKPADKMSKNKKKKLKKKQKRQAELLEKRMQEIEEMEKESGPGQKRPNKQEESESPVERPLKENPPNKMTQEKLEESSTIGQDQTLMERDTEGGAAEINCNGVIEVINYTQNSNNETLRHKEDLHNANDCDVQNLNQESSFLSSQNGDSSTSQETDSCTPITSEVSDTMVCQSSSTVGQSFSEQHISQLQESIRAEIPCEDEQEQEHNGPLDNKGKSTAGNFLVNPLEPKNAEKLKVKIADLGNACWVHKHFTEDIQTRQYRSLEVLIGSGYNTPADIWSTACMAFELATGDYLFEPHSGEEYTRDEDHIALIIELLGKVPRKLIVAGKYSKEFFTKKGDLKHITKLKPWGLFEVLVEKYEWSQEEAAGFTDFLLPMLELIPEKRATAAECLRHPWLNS

[33] = molecular target: STK3 (human) (UniProt Q13188)
[34] = molecular target: TBK1 (human) (UniProt Q9UHD2)
Sequence of TBK1 (human) (Q9UHD2 whole entry, looked up): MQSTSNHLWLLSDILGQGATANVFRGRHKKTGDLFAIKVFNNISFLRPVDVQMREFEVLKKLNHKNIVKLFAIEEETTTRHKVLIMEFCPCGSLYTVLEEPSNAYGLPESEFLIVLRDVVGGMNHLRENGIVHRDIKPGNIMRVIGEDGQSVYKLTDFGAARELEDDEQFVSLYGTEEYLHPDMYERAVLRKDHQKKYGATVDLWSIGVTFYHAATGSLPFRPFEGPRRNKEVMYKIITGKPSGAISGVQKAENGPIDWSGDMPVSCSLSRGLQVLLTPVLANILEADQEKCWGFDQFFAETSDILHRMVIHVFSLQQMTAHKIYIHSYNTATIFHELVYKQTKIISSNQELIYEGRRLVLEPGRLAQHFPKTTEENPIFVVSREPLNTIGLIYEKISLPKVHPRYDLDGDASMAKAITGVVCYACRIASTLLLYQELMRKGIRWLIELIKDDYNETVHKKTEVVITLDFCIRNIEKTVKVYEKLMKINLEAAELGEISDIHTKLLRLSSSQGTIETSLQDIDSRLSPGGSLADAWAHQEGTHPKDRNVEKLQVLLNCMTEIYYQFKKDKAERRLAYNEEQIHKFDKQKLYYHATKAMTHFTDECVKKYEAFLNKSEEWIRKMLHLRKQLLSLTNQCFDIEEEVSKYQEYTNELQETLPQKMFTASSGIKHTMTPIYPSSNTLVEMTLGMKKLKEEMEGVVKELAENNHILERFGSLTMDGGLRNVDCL

[35] = molecular target: TTK (human) (UniProt P33981)
Sequence of TTK (human) (P33981 whole entry, looked up): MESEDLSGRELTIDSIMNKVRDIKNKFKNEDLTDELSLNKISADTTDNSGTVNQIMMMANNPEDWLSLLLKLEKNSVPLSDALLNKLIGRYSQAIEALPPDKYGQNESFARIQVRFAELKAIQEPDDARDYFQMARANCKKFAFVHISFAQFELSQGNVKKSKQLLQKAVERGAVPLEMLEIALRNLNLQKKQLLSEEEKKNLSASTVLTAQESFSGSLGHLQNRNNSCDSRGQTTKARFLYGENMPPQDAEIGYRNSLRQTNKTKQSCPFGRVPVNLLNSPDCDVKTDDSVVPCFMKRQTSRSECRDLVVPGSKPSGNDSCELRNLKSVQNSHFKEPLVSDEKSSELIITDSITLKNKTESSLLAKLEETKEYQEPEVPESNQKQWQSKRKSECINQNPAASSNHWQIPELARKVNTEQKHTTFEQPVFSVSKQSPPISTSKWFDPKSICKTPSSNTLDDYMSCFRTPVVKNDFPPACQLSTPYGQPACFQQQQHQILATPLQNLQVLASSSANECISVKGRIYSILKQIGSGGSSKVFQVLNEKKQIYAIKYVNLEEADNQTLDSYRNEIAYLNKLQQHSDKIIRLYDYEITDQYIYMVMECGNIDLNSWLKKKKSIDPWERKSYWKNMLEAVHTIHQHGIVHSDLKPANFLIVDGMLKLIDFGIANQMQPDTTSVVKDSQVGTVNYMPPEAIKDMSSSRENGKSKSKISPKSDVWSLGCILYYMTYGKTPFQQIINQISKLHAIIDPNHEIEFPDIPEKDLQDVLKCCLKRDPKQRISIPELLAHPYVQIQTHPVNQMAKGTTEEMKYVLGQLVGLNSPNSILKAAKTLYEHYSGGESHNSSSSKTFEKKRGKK

[36] = molecular target: YES1 (human) (UniProt P07947)

Q: What does the source list for `O=C(O)c1ccc(-c2c[nH]c3ncc(-c4ccccc4)cc23)cc1C1CCCC1`?
A: residual activity ([1]; compound 0.1 µM): 89%; residual activity ([1]; compound 1.0 µM): 96%; residual activity ([2]; compound 0.1 µM): 106%; residual activity ([2]; compound 1.0 µM): 1%; residual activity ([2]; compound 10.0 µM): 0%; residual activity ([3]; compound 0.1 µM): 112%; residual activity ([3]; compound 1.0 µM): 108%; residual activity ([3]; compound 10.0 µM): 79%; residual activity ([4]; compound 0.1 µM): 96%; residual activity ([4]; compound 10.0 µM): 46%; residual activity [5]: 87%; residual activity ([6]; compound 0.1 µM): 120%; residual activity ([6]; compound 1.0 µM): 110%; residual activity [7]: 103%; residual activity [8]: 94%; residual activity [9]: 122%; residual activity ([10]; compound 0.1 µM): 8%; residual activity ([10]; compound 1.0 µM): 3%; residual activity ([10]; compound 10.0 µM): 1%; residual activity ([11]; compound 0.1 µM): 94%; residual activity ([11]; compound 1.0 µM): 97%; residual activity ([11]; compound 10.0 µM): 64%; residual activity ([12]; compound 0.1 µM): 98%; residual activity ([12]; compound 1.0 µM): 58%; residual activity ([12]; compound 10.0 µM): 26%; residual activity ([13]; compound 0.1 µM): 105%; residual activity ([13]; compound 1.0 µM): 34%; residual activity ([13]; compound 10.0 µM): 12%; residual activity [14]: 93%; residual activity [15]: 100%; residual activity ([16]; compound 0.1 µM): 87%; residual activity ([16]; compound 1.0 µM): 38%; residual activity ([16]; compound 10.0 µM): 7%; residual activity ([17]; compound 0.1 µM): 80%; residual activity ([17]; compound 1.0 µM): 46%; residual activity ([17]; compound 10.0 µM): 9%; residual activity ([18]; compound 0.1 µM): 107%; residual activity ([18]; compound 1.0 µM): 103%; residual activity ([18]; compound 10.0 µM): 96%; residual activity ([19]; compound 0.1 µM): 89%; residual activity ([19]; compound 1.0 µM): 60%; residual activity ([19]; compound 10.0 µM): 29%; residual activity [20]: 110%; residual activity ([21]; compound 0.1 µM): 68%; residual activity ([21]; compound 1.0 µM): 14%; residual activity ([21]; compound 10.0 µM): 4%; residual activity ([22]; compound 0.1 µM): 87%; residual activity ([22]; compound 1.0 µM): 102%; residual activity ([22]; compound 10.0 µM): 87%; residual activity ([23]; compound 0.1 µM): 104%; residual activity ([23]; compound 10.0 µM): 107%; residual activity [24]: 99%; residual activity ([25]; compound 0.1 µM): 102%; residual activity ([25]; compound 1.0 µM): 103%; residual activity ([25]; compound 10.0 µM): 61%; residual activity ([26]; compound 0.1 µM): 91%; residual activity ([26]; compound 1.0 µM): 62%; residual activity ([26]; compound 10.0 µM): 26%; residual activity ([27]; compound 0.1 µM): 104%; residual activity ([27]; compound 1.0 µM): 92%; residual activity ([27]; compound 10.0 µM): 75%; residual activity ([28]; compound 0.1 µM): 90%; residual activity ([28]; compound 1.0 µM): 86%; residual activity ([28]; compound 10.0 µM): 45%; residual activity ([29]; compound 0.1 µM): 76%; residual activity ([29]; compound 1.0 µM): 31%; residual activity ([29]; compound 10.0 µM): 5%; residual activity ([30]; compound 0.1 µM): 94%; residual activity ([30]; compound 1.0 µM): 103%; residual activity ([30]; compound 10.0 µM): 62%; residual activity ([31]; compound 0.1 µM): 100%; residual activity ([31]; compound 1.0 µM): 74%; residual activity ([31]; compound 10.0 µM): 24%; residual activity ([32]; compound 0.1 µM): 82%; residual activity ([32]; compound 1.0 µM): 104%; residual activity ([32]; compound 10.0 µM): 50%; residual activity ([33]; compound 0.1 µM): 68%; residual activity ([33]; compound 1.0 µM): 22%; residual activity ([33]; compound 10.0 µM): 4%; residual activity ([34]; compound 0.1 µM): 86%; residual activity ([34]; compound 1.0 µM): 70%; residual activity ([34]; compound 10.0 µM): 27%; residual activity ([35]; compound 0.1 µM): 89%; residual activity ([35]; compound 1.0 µM): 79%; residual activity ([35]; compound 10.0 µM): 46%; residual activity ([36]; compound 0.1 µM): 105%; residual activity ([36]; compound 1.0 µM): 93%; residual activity ([36]; compound 10.0 µM): 42%
